Literature values as cited in paper PMC8245892, “Pharmacokinetics of a Single Dose of Turmeric Curcuminoids Depends on Formulation: Results of a Human Crossover Study” (The Journal of Nutrition, 2021).
Counter-ions that a name gives are not always drawn.

Legend:
[1] = design: method as in PMID 24280069
NF-κB = test system: NF-κB; design: method as in PMID 24280069
[2] = aqueous buffer (pH 5.0)
[3] = test system: phorbol ester–induced PGE2 production; design: method as in PMID 11221833; conditions: human cells; compared with unconjugated curcumin

Compound | Antiproliferative activity [1] | Effect on NF-κB (NF-κB) | Solubility [2] [µg/mL] | Reduction of phorbol ester–induced PGE2 production [3]
COc1cc(/C=C/C(O)=C/C(=O)/C=C/c2ccc(O[C@@H]3O[C@H](C(=O)O)[C@@H](O)[C@H](O)[C@H]3O)c(OC)c2)ccc1O [curcumin monoglucuronide] | very little antiproliferative activity | no effect | – | –
curcumin | – | – | 0.011 | –
COc1cc(C=CC(=O)CC(=O)C=Cc2ccc(OC3OC(C(=O)O)C(O)C(O)C3O)c(OC)c2)ccc1OC1OC(C(=O)O)C(O)C(O)C1O (stereo not drawn) [diglucuronide] | very little antiproliferative activity | no effect | – | –
COc1cc(/C=C/C(O)=C/C(=O)/C=C/c2ccc(OS(=O)(=O)O)c(OC)c2)ccc1O [curcumin sulfate] | – | – | – | less effective than unconjugated curcumin
